The values that follow come from patent US20140336067A1, “METHOD FOR FINDING BIOACTIVE PEPTIDES” (Nano Intelligent Biomedical Engineering Corporation Co. Ltd., priority 2011, published 2014).

Experiment [1] has as its system hMSCs (human mesenchymal stem cells). Put plainly: In vitro cell differentiation potential by calcium production (Alizarin red S staining). In kind it is cell-based. Particulars: hMSCs treated with 10 mM peptide, hard tissue forming medium, FIG. 6. How it is done:
To measure the cell differentiation ability of the heparin binding peptide by calcium production, 1×10^3 hMSCs (human mesenchymal stem cells) were dispensed into each well of a well-plate, and then treated with 10 mM of each of the peptides of SEQ ID NOS: 2 and 3 synthesized in Example 2. Then, the cells were cultured in a hard tissue forming medium (MSCBM medium containing 15% FBS (fetal bovine serum), […] L-ascorbic acid, 10^−7 M dexamethasone, 1% antibiotic-antimycotic solution, and 10 mM beta-glycerol phosphate) for […]. After completion of the culture, the medium was removed, and the cells were washed twice with phosphate buffered saline (PBS). Then, the cells were fixed with 90% ethanol at 4° C. for 15 minutes and washed twice with distilled water, followed by staining with 2% Alizarin red S solution (pH 4.2; Alizarin red S powder, Junsei, JAPAN) for 5 minutes.

Experiment [2] in a line: Binding of synthesized peptide to heparin (solid phase method, HRP-conjugated heparin binding protein, absorbance at 405 nm). Particulars: peptide coated on 96-well plates, sodium heparin 10 μg/100 μL, FIG. 5. The method, then: The synthesized peptide was dissolved in PBS at various concentrations and coated on the surface of 96-well Maxisorp microtiter plates (Nunc). Then, it was blocked with 1% BSA at 37° C. for 1 hour, and sodium heparin (10 μg/100 μL) was added to the peptide and reacted with the peptide at room temperature for 4 hours. The plate was washed three times with PBS, and then horseradish peroxidase (HRP)-conjugated heparin binding protein (Lifespan Technologies, Salt Lake City, Utah) diluted in PBS at a concentration of 1 μg/mL was reacted with the peptide at room temperature for 1 hour. To measure the binding of HRP-conjugated heparin binding protein to the peptide, ABTS was added to each well to develop color, and after 5 minutes, 1% SDS was added to each well to stop the reaction. Then, the absorbance of each well at 405 nm was measured. The absorbance of the peptide having the HRP-conjugated heparin binding protein bound thereto was calculated relative to 100% for the well surface coated with 1% BSA.
Binding %=(absorbance of well coated with heparin binding peptide/absorbance of well coated with BSA)×100

With “SQRARKKNKNCRRH (the sequence is synthesized) [SEQ ID NO: 2]”, the production of calcium result in experiment [1] is given as “highest”. In experiment [2], the “ability to bind to heparin” value is “high ability to bind to heparin”.

“SLYVDFSDVGW (the sequence is synthesized) [SEQ ID NO: 3, BMP-4 peptide selected from chymotrypsin cleavage sites]”: the production of calcium result in experiment [1] is “lowest”.
